Assay results: ChEMBL document CHEMBL1148310, “Rational design and synthesis of novel dimeric diketoacid-containing inhibitors of HIV-1 integrase: implication for binding to two metal ions on the active site of integrase” (J Med Chem, 2004)

Columns and labels:
[1] = tested on: CCRF-CEM; assay: Maximum protection of CEM cells by the compound against HIV-1 at a dose of 20 uM; assay type: functional, Homo sapiens
[2] = Therapeutic index expressed as the ratio of CC50 and EC50; assay type: cell-based; conditions: human, CCRF-CEM cells; read-out: Therapeutic index
[3] = tested on: CCRF-CEM; assay: Anti HIV-1 activity expressed as the concentration required to protect of HIV-1 infected CEM cells; assay type: functional, cell-based; conditions: Homo sapiens
[4] = tested on: CCRF-CEM; assay: Cytotoxic concentration against uninfected CEM cells; assay type: functional; conditions: Homo sapiens
[5] = molecular target: T1, Human immunodeficiency virus type 1 integrase (Human immunodeficiency virus 1, UniProt Q7ZJM1)
[6] = molecular target: T1, Human immunodeficiency virus type 1 integrase; remark: listed apart in the source
Description: Inhibition of HIV-1 integrase catalytic activity

[7] = tested on: CCRF-CEM; assay: Maximum protection of CEM cells by the compound against HIV-1 at a dose of 2 uM; assay type: functional, Homo sapiens
[8] = molecular target: T1, Human immunodeficiency virus type 1 integrase; assay: Evaluated for inhibition of HIV-1 integrase catalytic activity in terms of inhibition of 3'-processing; assay type: functional
[9] = tested on: CCRF-CEM; assay: Maximum protection of CEM cells by the compound against HIV-1 at a dose of 0.2 uM; assay type: functional, Homo sapiens
[10] = tested on: CCRF-CEM; assay: Maximum protection of CEM cells by the compound against HIV-1; No protection; assay type: functional, cell-based; conditions: Homo sapiens
[11] = Therapeutic index expressed as the ratio of CC50 and EC50; No therapeutic benifit reached; assay type: cell-based; conditions: human, ccrf-cem
[12] = tested on: CCRF-CEM; assay: Maximum protection of CEM cells by the compound against HIV-1 at a dose of 2 uM; No protection; assay type: functional, cell-based; conditions: Homo sapiens
[13] = tested on: CCRF-CEM; assay: Maximum protection of CEM cells by the compound against HIV-1 at a dose of 63 uM; assay type: functional, Homo sapiens

T1 sequence (Q7ZJM1 whole entry): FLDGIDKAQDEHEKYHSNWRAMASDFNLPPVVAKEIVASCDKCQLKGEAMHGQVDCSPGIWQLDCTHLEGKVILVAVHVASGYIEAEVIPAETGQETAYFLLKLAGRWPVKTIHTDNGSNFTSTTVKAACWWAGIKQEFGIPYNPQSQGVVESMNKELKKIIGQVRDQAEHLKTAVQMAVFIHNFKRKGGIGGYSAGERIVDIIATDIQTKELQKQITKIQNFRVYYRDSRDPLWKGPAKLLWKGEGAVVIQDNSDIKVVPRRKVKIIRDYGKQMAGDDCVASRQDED

Row | SMILES | EC50 [3] [µM] | IC50 [5] [µM] | IC50 [6] [µM] | IC50 [8] [µM] | Max protection [1] [%] | selectivity ratio [2] | CC50 [4] [µM] | Max protection [7] [%] | Max protection [9] [%] | Max protection [10] | Therapeutic index [11] | Max protection [12] | Max protection [13] [%]
1 | O=C(O)C(=O)/C=C(\O)c1cccc(C(c2cccc(/C(O)=C/C(=O)C(=O)O)c2)c2ccccc2F)c1 (configuration not stated) | 17 | – | – | – | 88 | – | 81 | – | – | – | – | – | –
2 | O=C(O)C(=O)/C=C(\O)c1cccc(OCc2ccc(COc3cccc(/C(O)=C/C(=O)C(=O)O)c3)cc2)c1 | > 200 | 1.7 | 1.9 | – | – | – | > 200 | – | – | No protection | No therapeutic benefit | – | –
3 | O=C(/C=C(\O)c1cccc(Cc2ccccc2F)c1)C(=O)NCCCCCNC(=O)C(=O)/C=C(\O)c1cccc(Cc2ccccc2F)c1 | > 12 | 4.8 | 0.7 | – | – | – | 12 | – | – | No protection | No therapeutic benefit | – | –
4 | O=C(O)C(=O)/C=C(\O)c1cccc(OCc2cccc(COc3cccc(/C(O)=C/C(=O)C(=O)O)c3)c2)c1 | > 200 | 7.3 | – | – | – | – | > 200 | – | – | No protection | – | – | –
5 | O=C(O)C(=O)/C=C(\O)c1cccc(OCc2ccccc2COc2cccc(/C(O)=C/C(=O)C(=O)O)c2)c1 | 39 | – | – | – | – | – | > 200 | – | – | – | – | – | 97

Continued, in another order:

Row | EC50 [3] [µM] | IC50 [5] [µM] | IC50 [6] [µM] | IC50 [8] [µM] | SMILES | Max protection [1] [%] | selectivity ratio [2] | CC50 [4] [µM] | Max protection [7] [%] | Max protection [9] [%] | Max protection [10] | Therapeutic index [11] | Max protection [12] | Max protection [13] [%]
6 | 16 | 32 | 2.7 | – | O=C(/C=C(\O)c1cccc(Cc2ccccc2F)c1)C(=O)NCCCCCCNC(=O)C(=O)/C=C(\O)c1cccc(Cc2ccccc2F)c1 | 86 | 8 | 124 | – | – | – | – | – | –
7 | 0.8 | – | 0.3 | 2.5 | O=C(/C=C(\O)c1cccc(Cc2ccccc2F)c1)C(=O)N1CCN(C(=O)C(=O)/C=C(\O)c2cccc(Cc3ccccc3F)c2)CC1 | – | 14 | 11 | 100 | – | – | – | – | –
8 | 0.02 | 2.5 | 0.4 | – | O=C(O)C(=O)/C=C(\O)c1cccc(Cc2ccccc2F)c1 | – | 3110 | 62 | – | 98 | – | – | – | –
9 | > 5 | 5.8 | 0.2 | – | O=C(/C=C(\O)c1cccc(Cc2ccccc2F)c1)C(=O)NCCNC(=O)C(=O)/C=C(\O)c1cccc(Cc2ccccc2F)c1 | – | – | 5 | – | – | – | No therapeutic benefit | No protection | –
10 | > 9 | 5.3 | 0.2 | – | O=C(/C=C(\O)c1cccc(Cc2ccccc2F)c1)C(=O)NCCCNC(=O)C(=O)/C=C(\O)c1cccc(Cc2ccccc2F)c1 | – | – | 9 | – | – | No protection | No therapeutic benefit | – | –
